Data set [1] deals with Cholinesterase (Equus caballus, UniProt P81908). The data set is described as follows: Inhibition of equine serum BChE using BTC as substrate incubated for 2 mins by Ellman's method. Type of data set: cell-free. In general terms: In Ellman's method for cholinesterases, released thiocholine reacts with DTNB.
The target of data set [2] is T1, Cholinesterase (Homo sapiens, UniProt P06276). Put plainly: Inhibition of human BChE using BTC as substrate at 10 uM incubated for 2 mins by Ellman's method relative to control.
T1 sequence (P06276 whole entry): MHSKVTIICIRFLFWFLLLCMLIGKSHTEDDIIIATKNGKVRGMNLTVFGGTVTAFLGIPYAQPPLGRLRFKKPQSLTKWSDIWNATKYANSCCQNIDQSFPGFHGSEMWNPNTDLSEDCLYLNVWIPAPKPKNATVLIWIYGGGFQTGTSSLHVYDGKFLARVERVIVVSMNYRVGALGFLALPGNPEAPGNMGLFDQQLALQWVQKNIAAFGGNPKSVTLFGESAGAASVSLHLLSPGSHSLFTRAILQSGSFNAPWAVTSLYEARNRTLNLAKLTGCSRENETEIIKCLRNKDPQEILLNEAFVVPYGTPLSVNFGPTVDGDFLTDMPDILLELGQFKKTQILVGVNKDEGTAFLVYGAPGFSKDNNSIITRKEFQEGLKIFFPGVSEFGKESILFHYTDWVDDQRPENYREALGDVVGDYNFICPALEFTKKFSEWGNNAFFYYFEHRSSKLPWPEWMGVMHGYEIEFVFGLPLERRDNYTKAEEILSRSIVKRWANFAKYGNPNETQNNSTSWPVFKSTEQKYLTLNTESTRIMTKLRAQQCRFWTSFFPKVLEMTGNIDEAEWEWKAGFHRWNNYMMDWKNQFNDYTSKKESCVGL
In data set [3] the target is Acetylcholinesterase (Electrophorus electricus) (UniProt O42275). Put plainly: Inhibition of electric eel AChE using ATC as substrate at 10 uM incubated for 2 mins by Ellman's method relative to control.
Sequence of Acetylcholinesterase (Electrophorus electricus) (O42275 24-633 limits assumed): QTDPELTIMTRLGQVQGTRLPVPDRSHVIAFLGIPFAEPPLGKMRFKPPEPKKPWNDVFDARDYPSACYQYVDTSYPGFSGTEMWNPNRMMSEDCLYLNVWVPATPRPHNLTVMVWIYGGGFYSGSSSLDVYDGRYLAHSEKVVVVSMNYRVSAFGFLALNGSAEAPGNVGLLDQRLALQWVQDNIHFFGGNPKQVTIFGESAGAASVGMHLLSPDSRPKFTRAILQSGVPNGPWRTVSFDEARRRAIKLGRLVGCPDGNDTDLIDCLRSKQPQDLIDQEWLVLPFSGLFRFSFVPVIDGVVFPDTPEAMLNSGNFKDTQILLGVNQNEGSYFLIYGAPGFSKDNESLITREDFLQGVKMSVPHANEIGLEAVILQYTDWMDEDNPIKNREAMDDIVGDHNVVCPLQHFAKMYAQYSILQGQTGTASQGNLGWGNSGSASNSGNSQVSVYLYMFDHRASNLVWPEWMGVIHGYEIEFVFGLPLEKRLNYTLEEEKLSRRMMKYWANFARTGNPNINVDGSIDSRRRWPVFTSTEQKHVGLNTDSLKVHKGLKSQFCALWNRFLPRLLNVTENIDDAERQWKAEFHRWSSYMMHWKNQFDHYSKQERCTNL
Data set [4] deals with Acetylcholinesterase (Electrophorus electricus, UniProt O42275). The data set is described as follows: Inhibition of electric eel AChE using ATC as substrate incubated for 2 mins by Ellman's method.
Sequence of Acetylcholinesterase (O42275 whole entry): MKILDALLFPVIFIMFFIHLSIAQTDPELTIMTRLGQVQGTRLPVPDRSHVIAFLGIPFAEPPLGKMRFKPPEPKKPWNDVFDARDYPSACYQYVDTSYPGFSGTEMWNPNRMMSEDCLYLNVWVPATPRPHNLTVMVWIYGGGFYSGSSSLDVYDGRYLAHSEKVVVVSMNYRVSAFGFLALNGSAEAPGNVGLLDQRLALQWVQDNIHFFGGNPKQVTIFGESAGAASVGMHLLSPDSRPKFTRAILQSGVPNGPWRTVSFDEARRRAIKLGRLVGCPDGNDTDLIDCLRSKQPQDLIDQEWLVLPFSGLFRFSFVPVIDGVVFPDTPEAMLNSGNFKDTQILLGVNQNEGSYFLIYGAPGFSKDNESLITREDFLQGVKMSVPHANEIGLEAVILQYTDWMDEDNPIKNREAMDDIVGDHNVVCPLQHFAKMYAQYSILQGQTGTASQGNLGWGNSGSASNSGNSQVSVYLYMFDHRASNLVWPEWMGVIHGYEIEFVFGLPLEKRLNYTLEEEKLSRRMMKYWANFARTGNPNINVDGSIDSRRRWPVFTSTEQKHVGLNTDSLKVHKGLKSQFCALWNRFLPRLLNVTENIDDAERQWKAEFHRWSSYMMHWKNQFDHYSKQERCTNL
In data set [5] the target is T1, Cholinesterase. The data set is described as follows: Inhibition of human BChE using BTC as substrate incubated for 2 mins by Ellman's method.
In data set [6] the target is Cholinesterase (Equus caballus) (UniProt P81908). The data set is described as follows: Inhibition of equine serum BChE using BTC as substrate at 10 uM incubated for 2 mins by Ellman's method relative to control. Type of data set: cell-free.
Sequence of Cholinesterase (Equus caballus) (P81908 whole entry): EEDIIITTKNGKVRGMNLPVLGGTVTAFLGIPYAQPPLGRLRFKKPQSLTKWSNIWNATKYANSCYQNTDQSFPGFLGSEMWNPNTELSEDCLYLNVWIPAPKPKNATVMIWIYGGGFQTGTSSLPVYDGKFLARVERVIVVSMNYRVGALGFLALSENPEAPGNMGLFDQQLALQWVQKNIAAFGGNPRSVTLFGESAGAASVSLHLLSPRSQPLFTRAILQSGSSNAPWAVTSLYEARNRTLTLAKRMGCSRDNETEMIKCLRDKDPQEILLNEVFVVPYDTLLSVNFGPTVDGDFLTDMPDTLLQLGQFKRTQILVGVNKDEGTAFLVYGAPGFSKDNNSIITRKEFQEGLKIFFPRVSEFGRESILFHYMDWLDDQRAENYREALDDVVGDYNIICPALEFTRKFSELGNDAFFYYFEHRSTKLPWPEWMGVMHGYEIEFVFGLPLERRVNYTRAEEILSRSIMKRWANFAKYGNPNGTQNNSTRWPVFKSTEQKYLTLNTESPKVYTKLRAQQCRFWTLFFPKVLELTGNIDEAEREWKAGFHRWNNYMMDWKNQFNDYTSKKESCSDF
Data set [7] relates to Antioxidant response element. Put plainly: Induction of ARE in human HepG2-ARE-C8 cells incubated for 24 hrs by luciferase based assay. Type of data set: cell-based. The conditions noted are these: HepG2-ARE-C8, 24 h.
Data set [8] is described as follows: Metabolic stability in human liver microsomes assessed as half life at 2 uM incubated for 60 mins by LC-MS/MS analysis. Type of data set: ADME, Microsome. For orientation: Liver microsomes are a subcellular fraction often used to study metabolism.

Sequence of Cholinesterase (Equus caballus, UniProt P81908) (P81908 whole entry): as above

Regarding `O=C(Cc1ccc(Cl)cc1)Nc1cnc2ccccc2c1N1CCN(Cc2ccccc2)CC1`, in data set [1], half-maximal inhibition (IC50) required 960 nM. For the same compound, the inhibition in data set [2] and in data set [3] was below 50% throughout.

On to `O=C(Nc1cnc2ccccc2c1N1CCN(Cc2ccccc2)CC1)c1ccco1`, for which the IC50 is 420 nM in data set [1] and 4220 nM in data set [4]. Also, the inhibition in data set [2] was below 50%.

`Cc1ccc(C(=O)Nc2cnc3ccccc3c2N2CCN(Cc3ccccc3)CC2)cc1`: the IC50 is 770 nM in data set [5] and 160 nM in data set [1]. Moreover, the inhibition in data set [3] was below 50%.

As for `O=C(Nc1cnc2ccccc2c1N1CCN(Cc2ccccc2)CC1)c1cccs1`, the IC50 in data set [1] was 210 nM; in data set [4], 4040 nM. In data set [2], this compound yielded an inhibition below 50%.

In data set [1], `CC(C)c1ccc(C(=O)Nc2cnc3ccccc3c2N2CCN(Cc3ccccc3)CC2)cc1` showed an IC50 of 1180 nM. The inhibition in data set [2] and in data set [3] was below 50% throughout.

With `Cc1ccccc1C(=O)Nc1cnc2ccccc2c1N1CCN(Cc2ccccc2)CC1`, the IC50 in data set [5] is 1200 nM; in data set [1], 2240 nM. The compound further had an inhibition in data set [3] below 50%.

`COc1cccc(C(=O)Nc2cnc3ccccc3c2N2CCN(Cc3ccccc3)CC2)c1` returned an IC50 in data set [1] of 300 nM. In addition, the inhibition in data set [2] and in data set [3] was below 50% throughout.

Take `O=C(Cc1ccccc1Cl)Nc1cnc2ccccc2c1N1CCN(Cc2ccccc2)CC1`: the IC50 in data set [5] was determined as 1150 nM; in data set [1], 770 nM. Moreover, in data set [3], the inhibition is below 50%.

As to `O=C(Nc1cnc2ccccc2c1N1CCN(Cc2ccccc2)CC1)c1ccc([N+](=O)[O-])c([N+](=O)[O-])c1`, in data set [1], the IC50 worked out at 9040 nM. Besides, the inhibition in data set [2] and in data set [3] was below 50% each time.

`O=C(Nc1cnc2ccccc2c1N1CCN(Cc2ccccc2)CC1)c1cccc2ccccc12`: the IC50 in data set [5] came to 4130 nM; in data set [1] it was 140 nM. Also, the inhibition in data set [3] is below 50%.

Compound `Cc1ccc(CC(=O)Nc2cnc3ccccc3c2N2CCN(Cc3ccccc3)CC2)cc1` yielded an IC50 in data set [1] of 4730 nM. Moreover, the inhibition in data set [2] and in data set [3] was below 50% each time.

The compound `COc1ccc(C(=O)Nc2cnc3ccccc3c2N2CCN(Cc3ccccc3)CC2)cc1` gave an IC50 in data set [1] of 180 nM. Further, the inhibition in data set [2] and in data set [3] was below 50% throughout.

Regarding `O=C(Nc1cnc2ccccc2c1N1CCN(Cc2ccccc2)CC1)c1cccc(Cl)c1`, 1580 nM corresponded to half-maximal inhibition in data set [1] (IC50). The inhibition in data set [2] and in data set [3] was below 50% throughout.

In data set [1], `Cc1cccc(C(=O)Nc2cnc3ccccc3c2N2CCN(Cc3ccccc3)CC2)n1` returned an IC50 of 3320 nM. For the same compound, the inhibition in data set [2] and in data set [3] was below 50% each time.

Turning to `Cc1cccc(CC(=O)Nc2cnc3ccccc3c2N2CCN(Cc3ccccc3)CC2)c1`, the IC50 in data set [5] turned out to be 10700 nM; in data set [1], 430 nM. In data set [3], the inhibition was below 50%.

For `Cc1ccc(C(=O)Nc2cnc3ccccc3c2N2CCN(Cc3ccccc3)CC2)c(C)c1`, the IC50 in data set [5] stood at 3520 nM; in data set [1] it was 400 nM; in data set [4], 3770 nM.

On to `Cc1cccc(C(=O)Nc2cnc3ccccc3c2N2CCN(Cc3ccccc3)CC2)c1`, for which, in data set [1], half-maximal inhibition (IC50) required 360 nM. The inhibition in data set [2] and in data set [3] was below 50% each time.

Regarding `O=C(Cc1cccc([N+](=O)[O-])c1)Nc1cnc2ccccc2c1N1CCN(Cc2ccccc2)CC1`, half-maximal inhibition in data set [1] (IC50) required 6270 nM. Besides, the inhibition in data set [2] and in data set [3] was below 50% throughout.

With `CCCCCc1ccc(C(=O)Nc2cnc3ccccc3c2N2CCN(Cc3ccccc3)CC2)cc1`, the IC50 in data set [5] stood at 1590 nM; in data set [1], 170 nM. In data set [3], the inhibition is below 50%.

Turning to `O=C(Nc1cnc2ccccc2c1N1CCN(Cc2ccccc2)CC1)c1ccccn1`, the IC50 came to 2660 nM in data set [5] and 280 nM in data set [1]. The inhibition in data set [3] is below 50%.

Regarding `O=C(Nc1cnc2ccccc2c1N1CCN(Cc2ccccc2)CC1)c1ccc(Br)cc1`, it took 1270 nM to reach half-maximal inhibition in data set [1] (IC50). Further, the inhibition in data set [2] and in data set [3] was below 50% in each case.

Compound `O=C(Nc1cnc2ccccc2c1N1CCN(Cc2ccccc2)CC1)c1ccc([N+](=O)[O-])cc1` gave an IC50 in data set [1] of 700 nM. Moreover, the inhibition in data set [2] and in data set [3] was below 50% in each case.

`O=C(Nc1cnc2ccccc2c1N1CCN(Cc2ccccc2)CC1)C1CCCCC1`: the IC50 turned out to be 11900 nM in data set [1] and 2020 nM in data set [4]. In addition, in data set [2], the inhibition was below 50%.

On to `COc1ccccc1C(=O)Nc1cnc2ccccc2c1N1CCN(Cc2ccccc2)CC1`, for which the results for the half-maximal inhibitory concentration (IC50) in data set [5] and in data set [1] were 18400 nM and 180 nM, respectively. Besides, in data set [3], the inhibition is below 50%.

Consider `O=C(Nc1cnc2ccccc2c1N1CCN(Cc2ccccc2)CC1)c1ccc(F)cc1`, for which, in data set [1], inhibition was half-maximal at 3310 nM (IC50). In addition, the inhibition in data set [2] and in data set [3] was below 50% in each case.

Take `O=C(Nc1cnc2ccccc2c1N1CCN(Cc2ccccc2)CC1)C1CCCC1`: the IC50 was found to be 15100 nM in data set [1] and 1340 nM in data set [4]. In data set [2], this compound came in with an inhibition below 50%.

On to `O=C(Nc1cnc2ccccc2c1N1CCN(Cc2ccccc2)CC1)C1CCCO1` (centres undefined), for which the inhibition in data set [2], in data set [6] and in data set [3] was below 50% each time.

`O=C(Nc1cnc2ccccc2c1N1CCN(Cc2ccccc2)CC1)c1cccc([N+](=O)[O-])c1` registered an IC50 in data set [1] of 1300 nM. Further, the inhibition in data set [2] and in data set [3] was below 50% throughout.

Regarding `O=C(CCc1ccccc1)Nc1cnc2ccccc2c1N1CCN(Cc2ccccc2)CC1`, the values for the IC50 in data set [5] and in data set [1] were 5390 nM and 440 nM, respectively. For the same compound, in data set [3], the inhibition is below 50%.

On to `O=C(Nc1cnc2ccccc2c1N1CCN(Cc2ccccc2)CC1)c1ccc(Cl)cc1Cl`, for which the IC50 came out at 2410 nM in data set [5] and 230 nM in data set [1]. Further, the inhibition in data set [3] was below 50%.

On to `O=C(Cc1ccccc1)Nc1cnc2ccccc2c1N1CCN(Cc2ccccc2)CC1`, for which the IC50 in data set [5] came out at 9230 nM; in data set [1], 590 nM. This compound also came in with an inhibition in data set [3] below 50%.

Turning to `CCc1ccc(C(=O)Nc2cnc3ccccc3c2N2CCN(Cc3ccccc3)CC2)cc1`, inhibition in data set [1] was half-maximal at 2650 nM (IC50). The inhibition in data set [2] and in data set [3] was below 50% throughout.

In data set [1], `O=C(Nc1cnc2ccccc2c1N1CCN(Cc2ccccc2)CC1)c1ccc(F)cc1F` showed an IC50 of 460 nM. The inhibition in data set [2] and in data set [3] was below 50% each time.

On to `CC(C)(C)c1cc(O)ccc1O` [E319], for which the EC50 in data set [7] stood at 25600 nM.

Turning to `CCCCc1ccc(C(=O)Nc2cnc3ccccc3c2N2CCN(Cc3ccccc3)CC2)cc1`, the IC50 in data set [5] amounted to 550 nM; in data set [1] it was 130 nM. For the same compound, the inhibition in data set [3] was below 50%.

Consider `O=C(Nc1cnc2ccccc2c1N1CCN(Cc2ccccc2)CC1)c1ccccc1Cl`, for which the IC50 in data set [5] turned out to be 1130 nM; in data set [1], 180 nM. Moreover, the inhibition in data set [3] was below 50%.

Regarding `O=C(Nc1cnc2ccccc2c1N1CCN(Cc2ccccc2)CC1)c1ccc2ccccc2c1`, the IC50 in data set [5] was 12000 nM; in data set [1], 600 nM. In data set [3], the inhibition was below 50%.

Compound `N#Cc1ccc(C(=O)Nc2cnc3ccccc3c2N2CCN(Cc3ccccc3)CC2)cc1` registered an IC50 in data set [1] of 7610 nM. Besides, the inhibition in data set [2] and in data set [3] was below 50% throughout.

As to `O=C(Nc1cnc2ccccc2c1N1CCN(Cc2ccccc2)CC1)c1ccccc1`, in data set [8], the half-life at 2 µM was found to be 9.4 min. Further, the IC50 turned out to be 1680 nM in data set [5] and 3060 nM in data set [1]. This compound had an inhibition in data set [3] below 50%.

`O=C(Nc1cnc2ccccc2c1N1CCN(Cc2ccccc2)CC1)c1ccc(Cl)cc1`: the IC50 was found to be 4330 nM in data set [5] and 400 nM in data set [1]. The compound also showed an inhibition in data set [3] below 50%.

A word on the IC50: it is the midpoint of a concentration-inhibition curve. Read a high IC50 as weaker potency in that assay. The inhibition is the percentage by which the read-out fell short of the control. Lower therefore signals little suppression. For orientation: EC50 means the concentration that produces a half-maximal response. The low end stands for a more potent agent, the high end for a less potent agent. A word on the half-life: it is how long it takes for the measured level to halve.

These data come from ChEMBL document CHEMBL5500378, “Discovery of 4-benzylpiperazinequinoline BChE inhibitor that suppresses neuroinflammation for the treatment of Alzheimer's disease” (Eur J Med Chem, 2024).
